In ChEMBL document CHEMBL3507680, “University of Dundee, Gates Library screen for HepG2 cell viability” one finds cytotoxicity data, which are given here for 98 molecules.

A short description of the data set: Human HepG2 cell viability assay in 384 well format. The data set is classed as toxicity, cell-based. Also on record: dose 125 nL, time 70.5 hour; cytotoxicity at 70.5 h: concentration not given beside the values. Conditions: HepG2 cells, read-out: Inhibition.
For the molecule `CCC(CC)C(CNC(=O)Nc1ccc(OC)cc1)N1CCOCC1` (stereo not drawn), the cytotoxicity at 70.5 h is -12.2%.

On to `O=C(O)C1(n2ccc(-c3ccco3)n2)CCN(Cc2ccccn2)CC1`, for which the cytotoxicity at 70.5 h is -4.75%.

In the case of `Cc1nc2c(c(NCC(c3ccccc3C)N(C)C)n1)CCNC2` (stereo not drawn), the cytotoxicity at 70.5 h was found to be 25.9%.

Consider `COCc1cc(NCCc2ccc(S(N)(=O)=O)cc2)n2nccc2n1`, for which the cytotoxicity at 70.5 h is -20.7%.

Regarding `CNC(=O)C1CN(C(=O)c2cccnc2)CCN(S(C)(=O)=O)C1` (stereo not drawn), the cytotoxicity at 70.5 h is -4.31%.

As to `Cc1cc(NC(=O)CNC(C)(C)c2ccccc2)on1`, the cytotoxicity at 70.5 h amounted to 17.8%.

In the case of `CCC(=O)N1CCOC(c2cc(Nc3nncs3)cc(C)n2)C1` (stereo not drawn), the cytotoxicity at 70.5 h was -5.24%.

As for `CCc1nc(CN(C)CC2CCN(CC(C)O)CC2)no1` (stereo not drawn), the cytotoxicity at 70.5 h is -4.55%.

On to `Cc1nc(CN2CCN(c3ccc4nncn4n3)C(C)C2)oc1C` (stereo not drawn), for which the cytotoxicity at 70.5 h is -8.63%.

On to `COC(C)(C)Cn1ccnc1-c1cccc(C(C)N(C)C)c1` (stereo not drawn), for which the cytotoxicity at 70.5 h was -7.08%.

For `Nc1nc(N2CCCCCC2)ncc1C(=O)NCc1ccc(F)c(Cl)c1`, the cytotoxicity at 70.5 h is -10.8%.

Take `Cc1ccccc1-c1ncc(CNCc2csc(C(C)C)n2)s1`: the cytotoxicity at 70.5 h was -5.31%.

For `CC(C)Cc1nc(CNCc2cccc(N3CCCC3=O)c2)no1`, the cytotoxicity at 70.5 h is -20.4%.

With `Cc1nc(C2CCCN2Cc2cc(Cl)c3c(c2)OCCCO3)no1` (stereo not drawn), the cytotoxicity at 70.5 h was -7.15%.

Consider `O=C1C[C@H]2CC[C@@H](CN1)N2C1CCOCC1`, for which the cytotoxicity at 70.5 h is -1.49%.

Regarding `O=C(NS(=O)(=O)c1cnn(-c2ccccc2F)c1)c1ccoc1`, the cytotoxicity at 70.5 h came to 9.38%.

In the case of `COc1ccc(S(=O)(=O)N[C@H]2CN(C(C)=O)C[C@@H]2C2CC2)cc1C`, the cytotoxicity at 70.5 h is -14.2%.

For `CC(NC(=O)C1=NN(C)C(=O)CC1)c1ccccc1Cl` (stereo not drawn), the cytotoxicity at 70.5 h was -96.4%.

With `CS(=O)(=O)NCC1CCCN(C(=O)c2ccc(F)c(F)c2)C1` (stereo not drawn), the cytotoxicity at 70.5 h was -1.98%.

Turning to `COCCN(CC(C)C)C(=O)c1cccc(Nc2cnccn2)c1`, the cytotoxicity at 70.5 h was -13.9%.

For the molecule `COc1ccccc1CN1C(=O)O[C@@H]2CN(c3nc(C)cc(C)n3)C[C@@H]21`, the cytotoxicity at 70.5 h is -3.9%.

For `CC(C)(NC(=O)c1cnc(C(C)(C)C)s1)C(N)=O`, the cytotoxicity at 70.5 h was determined as 28.5%.

Take `COc1cccc(CN(C)c2ncc(C(N)=O)cc2Cl)c1`: the cytotoxicity at 70.5 h was -4.58%.

Consider `CCN1CCCC(CNC(=O)C2(c3cc(C)cc(C)c3)CCC2)C1` (stereo not drawn), for which the cytotoxicity at 70.5 h is 28.2%.

On to `Cn1cc(CN2CC[C@@H]3[C@@H](CCC(=O)N3CC3CCNCC3)C2)cn1`, for which the cytotoxicity at 70.5 h was found to be 1.94%.

As for `COc1cccc(NC(=O)CC2Cn3ncnc3NC2=O)c1` (stereo not drawn), the cytotoxicity at 70.5 h is -10.6%.

Turning to `CN(C)C(C(=O)N1CCCC1)c1ccccc1F` (stereo not drawn), the cytotoxicity at 70.5 h was -1.96%.

Turning to `O=C1NCCN(CC2CC2)C12CCN(Cc1ccco1)CC2`, the cytotoxicity at 70.5 h came to 12.8%.

As for `Cc1cccc(=O)n1CCC(=O)N(C)Cc1cccc2ncccc12`, the cytotoxicity at 70.5 h is -15.2%.

Take `CCn1nc(C)c2nnn(CC(=O)Nc3ccc(C)c(C)c3)c(=O)c21`: the cytotoxicity at 70.5 h is -7.31%.

Take `CN(C)C(=O)c1cn[nH]c1C1CCCN1Cc1nccn1C` (stereo not drawn): the cytotoxicity at 70.5 h worked out at 22.5%.

As for `CCCc1ncc(CN(C)C2CCCN(CCc3ccccc3)C2)cn1` (stereo not drawn), the cytotoxicity at 70.5 h is -4.41%.

For `Clc1snnc1CN1CCOC(CNc2cccnn2)C1` (stereo not drawn), the cytotoxicity at 70.5 h was -21.7%.

With `CCNC(=O)N(C)C1CCN(Cc2ncc(C)c(OC)c2C)CC1`, the cytotoxicity at 70.5 h is -8%.

On to `CC(C)CN1C[C@@H]2OCC(=O)N(c3ccccc3)[C@@H]2C1`, for which the cytotoxicity at 70.5 h was -15.4%.

As for `Cc1nc(CCN(C)C(=O)CCNC(=O)c2ccccc2F)no1`, the cytotoxicity at 70.5 h is -4.9%.

For the molecule `COc1cn(CC(=O)N2CCC(c3ccccc3)CC2)c(C)cc1=O`, the cytotoxicity at 70.5 h was 23.7%.

As to `CCC(=O)N1CCCC(c2cc(Nc3ncccn3)nc(C)n2)C1` (stereo not drawn), the cytotoxicity at 70.5 h is -5.83%.

Take `CN1CCCN(C(=O)c2cccc(S(=O)(=O)NCC3(C)COC3)c2)CC1`: the cytotoxicity at 70.5 h is -0.00641%.

For the molecule `C1CC(CO[C@@H]2CC[C@H]3[C@H]2OCCN3CC2CCOCC2)CCO1`, the cytotoxicity at 70.5 h was -81.4%.

With `NC(=O)c1cc(C2CCCN(C(=O)CCc3cccs3)C2)n[nH]1` (stereo not drawn), the cytotoxicity at 70.5 h came out at 10.7%.

Consider `Cc1cnn(CC2CN(CCCc3nc4ccccc4o3)CCO2)c1` (stereo not drawn), for which the cytotoxicity at 70.5 h was -0.695%.

Turning to `CNS(=O)(=O)c1cnccc1N1CCN(C(C)C)CC1`, the cytotoxicity at 70.5 h is 2.6%.

For `CN1CCC(n2nc(CC3CC3)nc2-c2ccc(F)cc2Cl)CC1`, the cytotoxicity at 70.5 h was -7.5%.

`c1cnc2[nH]c(C3CCCNC3)c(CN3CCCOCC3)c2c1` (stereo not drawn): the cytotoxicity at 70.5 h is -5.16%.

Consider `COc1cc(N2CC[C@@H](OC)[C@@H]2Cc2cnn(C)c2)ncn1`, for which the cytotoxicity at 70.5 h turned out to be 33.8%.

Consider `CC(C)CN(Cc1nc2c(cnn2C)c(=O)[nH]1)C(C)C`, for which the cytotoxicity at 70.5 h is -2.34%.

`COc1c(C2CCCN2C(=O)c2cccn2C)c(C)nn1C` (stereo not drawn): the cytotoxicity at 70.5 h was 13.8%.

As for `CC1CCN(C(=O)C2CCN(c3ccc(Cl)cc3C#N)CC2)CC1`, the cytotoxicity at 70.5 h is -6.44%.

`Cc1cc(C)nc(Nc2cccc(C3CCCN(S(C)(=O)=O)C3)n2)n1` (stereo not drawn): the cytotoxicity at 70.5 h came to 46.8%.

For `CNC(=O)COc1ccc(CNc2c(Cl)cccc2C#N)cc1`, the cytotoxicity at 70.5 h is -2.72%.

As for `O=C1N(CCCc2ccccc2)CCCC12CCN(C(CO)CO)C2` (stereo not drawn), the cytotoxicity at 70.5 h is -4.16%.

For `Cc1nc2sccn2c1C(=O)N1CCc2[nH]cnc2C1`, the cytotoxicity at 70.5 h was found to be 10.2%.

Consider `CC(C)(C)c1ncc(CNc2ccccc2SCCC(N)=O)s1`, for which the cytotoxicity at 70.5 h came to 3.11%.

In the case of `COc1ccc(OCC(O)CN2CCN(c3nccs3)CC2)cc1` (stereo not drawn), the cytotoxicity at 70.5 h is -2.04%.

On to `Cc1cc(CNC(=O)NCCOc2ccc(F)c(F)c2)on1`, for which the cytotoxicity at 70.5 h is -6.89%.

Regarding `O=C(NCCN1CCCCCC1=O)NCc1ccc(Cl)s1`, the cytotoxicity at 70.5 h was determined as 2.1%.

`c1csc(-c2noc(CNCCn3cccn3)n2)c1`: the cytotoxicity at 70.5 h is -4.45%.

With `CC(=O)N(Cc1noc(C)n1)C1CCN(Cc2ccccn2)C1` (stereo not drawn), the cytotoxicity at 70.5 h was -8.37%.

Take `COC(=O)C1CN(CC(=O)Nc2ccccc2Cl)c2ccccc21` (stereo not drawn): the cytotoxicity at 70.5 h is -5.02%.

Consider `CC(=O)N1CCN(C(=O)c2sccc2Br)CC1`, for which the cytotoxicity at 70.5 h came to 15.1%.

On to `CCNC(=O)NC(=O)C(C)N(C)CCOc1ccccc1C` (stereo not drawn), for which the cytotoxicity at 70.5 h was -12.4%.

In the case of `CCOc1ccc(N(CCC#N)C(=O)c2ccc(SC)nc2)cc1`, the cytotoxicity at 70.5 h was -4%.

For the molecule `Cn1cc(CCC(=O)NS(=O)(=O)N2CCCc3ccccc32)cn1`, the cytotoxicity at 70.5 h was -8.12%.

As to `CSCc1cc(C(=O)NC2(C#N)CC2)ccc1F`, the cytotoxicity at 70.5 h is -0.691%.

With `CSc1ccc2cc(CN(C)CCc3cn[nH]c3)c(=O)[nH]c2c1`, the cytotoxicity at 70.5 h was found to be 2.27%.

In the case of `COC(=O)C(C)(C)NC(=O)c1cnc(Cc2ccc(F)cc2)s1`, the cytotoxicity at 70.5 h was -2.02%.

On to `CC1(C(=O)N2CCOCC2)CN(Cc2ccccn2)CCO1` (stereo not drawn), for which the cytotoxicity at 70.5 h was 26.2%.

On to `c1cncc(COC[C@@H]2CCC[C@]23CNCCO3)c1`, for which the cytotoxicity at 70.5 h amounted to 0.77%.

Regarding `O=C1CC(N2CCN(c3ccc(O)cc3)CC2)C(=O)N1Cc1cccs1` (stereo not drawn), the cytotoxicity at 70.5 h is -7.69%.

As to `COC(=O)C(NC(=O)c1cc(C)ccc1C)c1cccnc1` (stereo not drawn), the cytotoxicity at 70.5 h was -0.114%.

Turning to `CN1CCN(C(=O)C[C@@H]2COC[C@H]3CN(c4ccncn4)C[C@@H]23)CC1`, the cytotoxicity at 70.5 h worked out at 12.2%.

As for `Cc1ccc(C(=O)N(C)Cc2ccc(Br)s2)c(=O)[nH]1`, the cytotoxicity at 70.5 h was 2.28%.

For the molecule `CN1CCc2[nH]cnc2C12CCN(C(=O)CCc1cccs1)CC2`, the cytotoxicity at 70.5 h was 16.8%.

For the molecule `CCOCCN1CCN(C(C)c2nc(C3CC3)no2)CC1` (stereo not drawn), the cytotoxicity at 70.5 h is 12.1%.

Turning to `CCn1cc(CN2CCCN(C(=O)C3=NN(C)C(=O)CC3)CC2)cn1`, the cytotoxicity at 70.5 h turned out to be 17.3%.

`O=C(COCCOc1ccccc1)NC1CCN(C(=O)C2CC2)CC1`: the cytotoxicity at 70.5 h was 14.4%.

With `CC(c1nc(C2CC2)no1)N1CCN(CCCN2CCCC2=O)CC1` (stereo not drawn), the cytotoxicity at 70.5 h is 3.52%.

Regarding `CNC(=O)CN1CCN(C(=O)c2ccn(C)c(=O)c2)CC1`, the cytotoxicity at 70.5 h stood at 31.2%.

`C[C@H]1C[C@H]2CN(C(=O)CCOc3ccccc3)CC[C@H]2O1`: the cytotoxicity at 70.5 h is -1.04%.

Turning to `O=C(C1CCS(=O)(=O)CC1)N1CCC(c2ccc(F)cc2)C1` (stereo not drawn), the cytotoxicity at 70.5 h was found to be 4.45%.

For `Cn1cccc1C(=O)NC[C@]12COC[C@H]1CN(Cc1nccs1)C2`, the cytotoxicity at 70.5 h was -15.1%.

Take `CCC(C)(NCc1cccc(NC(C)=O)c1)c1nc(C)cs1` (stereo not drawn): the cytotoxicity at 70.5 h was -0.722%.

Take `Cc1ccc(CC(=O)NCC(O)c2cc(Cl)cc(Cl)c2)cn1` (stereo not drawn): the cytotoxicity at 70.5 h is -3.94%.

With `C[C@@H]1CN(C2CCN(Cc3nn(C)c4cccc(Cl)c34)CC2)C[C@H](C)O1`, the cytotoxicity at 70.5 h came out at 25.7%.

For `COCc1cc(CNc2cnn(CC(F)F)c2)ccc1OC`, the cytotoxicity at 70.5 h turned out to be 1.97%.

Regarding `Cc1noc(C[C@@H]2COC[C@H]3CN(S(=O)(=O)C4CC4)C[C@@H]23)n1`, the cytotoxicity at 70.5 h is -5.01%.

With `Cc1cnc(-c2nc(C3CCN(Cc4ccccc4C)CC3)no2)cn1`, the cytotoxicity at 70.5 h was -8.63%.

As to `O=C1CC(c2cccs2)Cc2nc(O)c(C(=O)N3CCCC3)cc21` (stereo not drawn), the cytotoxicity at 70.5 h is -4.55%.

Take `CS(=O)(=O)N1CCC(Cc2cnc(Br)cn2)C1` (stereo not drawn): the cytotoxicity at 70.5 h came to 45.3%.

As for `CC1=C[C@@H](CN2CCCC2)[C@H](C(C)C)C[C@H]1Cc1nnc(C)o1`, the cytotoxicity at 70.5 h was -4.38%.

Regarding `CCS(=O)(=O)CC(=O)NC(c1ccc(F)cc1)C1CCCC1` (stereo not drawn), the cytotoxicity at 70.5 h worked out at 1.5%.

Take `Cc1nc(-c2ccc(CO)cc2)cc(C2CCNCC2)n1`: the cytotoxicity at 70.5 h was -2.27%.

`Fc1cccc(-n2ccc(CN3CCCC3Cn3cncn3)n2)c1` (stereo not drawn): the cytotoxicity at 70.5 h was -9.03%.

Take `Cc1cc(C(=O)NCC(F)(F)F)c2c(C3CCCN3)noc2n1` (stereo not drawn): the cytotoxicity at 70.5 h is -7.21%.

`COC(=O)c1ccc(S(=O)(=O)NCC(O)c2sccc2C)cc1` (stereo not drawn): the cytotoxicity at 70.5 h is -2.62%.

On to `CCCN1CCC2(C1)c1ccccc1S(=O)(=O)N2C` (stereo not drawn), for which the cytotoxicity at 70.5 h is -0.72%.

In the case of `O=C(c1ccc(Cn2cccc2)cc1)N1CCN(CCO)CC1`, the cytotoxicity at 70.5 h was -4.52%.
